# Laboratory results as given in patent US6534277B1, “Method for identifying a compound to be tested for an ability to reduce immune rejection by determining Stat4 and Stat6 proteins” (Millennium Pharmaceuticals, Inc., priority 2000, dated 2003).
# Entries after “also recorded” stand apart in the source; their conditions may differ.
# Experiments:
# [1] = tested on: BALB/c cardiac allograft in B6/129 wild-type mice; assay: Heterotopic cardiac allograft survival, BALB/c donors into B6/129 wild-type recipients; type: in vivo, mouse; details: with CD154 mAb/DST, rapamycin 0.2 mg/kg/d i.p., cyclosporin A 10 mg/kg/d i.p., methylprednisolone 1 mg/kg i.p., PS-519 1 mg/kg/d i.p., p<0.001
# Experimental: Heterotopic cardiac allografting was performed with anastomoses to the abdominal aorta and vena cava (Hancock et al., 1998, Nature Medicine 4:1392-1396), using BALB/c donors and B6/129 wild-type or […] mice as recipients. Recipients were treated with hamster IgG or hamster anti-mouse (CD40L mAb; 250 μg, administered intravenously) plus DST (5×10^6 splenic mononuclear cells) at the time of transplantation (Hancock et al., 1998, Nature Medicine 4:1392-1396).
# Heterotopic cardiac allografting was performed with anastomoses to the abdominal aorta and vena cava (Hancock, W. W. et al., 1998, Nature Medicine 4:1392-1396), using BALB/c donors and B6/129 wild-type or NF-κB/p50 KO mice as recipients (n=6/group). Recipients were treated with hamster IgG or hamster anti-mouse CD154 mAb (250 μg, i.v.) plus DST (“donor specific transfusion”; 5×10^6 splenic mononuclear cells) at the time of transplantation (Hancock, W. W. et al., 1998, Nature Medicine 4:1392-1396). […] Graft survival was monitored by daily palpation, and rejection was confirmed by laparotomy and histologic evaluation.
# Heterotopic cardiac allografting was performed with anastomoses to the abdominal aorta and vena cava, using BALB/c donors and B6/129 wild-type or Stat-6 KO mice as recipients (n=6/group). […] Graft survival was monitored by daily palpation and rejection was confirmed by laparotomy and histologic evaluation.
# [2] = tested on: CD154 expression by CD3 mAb-activated CD4+ splenic T cells; assay: Activation-induced CD154 expression by CD4+ T cells, dual color flow cytometry; type: cell-based, mouse; details: 7 hr, plate-bound CD3 mAb; for suppression (inhibition) of activation-induced CD154 expression: 125 ng/ml cyclosporin A, 20 ng/ml rapamycin, 100 μg/ml methylprednisolone, 1 μM mycophenolate mofetil, three experiments; for effect on activation-induced CD154 expression, in words: drug concentrations as b343 (10 μM lactacystin, 10 μM MG-273)
# Experimental: Six-well plates (Costar) were pre-coated overnight with 1 μg/ml of […] anti-mouse CD3 mAb (2C11). After washing with media (RPMI supplemented with 10% fetal bovine serum, 50 U/ml penicillin, 50 μg/ml streptomycin, 2 mM glutamine and 50 μM 2-mercaptoethanol) one ml of media containing 2× final drug concentration was added to each well. After testing of a range of concentrations of each agent, the optimal final physiologic drug concentrations for the data to be reported were 125 ng/ml cyclosporin A, 20 ng/ml rapamycin. 100 μg/ml methylprednisolone, 1 μM mycophenolate mofetil, 10 μm lactacystin and 10 μM MG-273. Cells were obtained from mechanically disrupted spleens and, after collection by centrifugation and washing once with media, one ml aliquots containing two million viable splenocytes were added to each well. Cultures were incubated at 37° C. in 5% CO2 for 7 hr. and were then diluted two-fold with chilled media containing 0.1% sodium azide (FACS media). Cells were collected by centrifugation at 4° C., resuspended in FACS media containing 1 μg Fc Block (PharMingen) and incubated on ice for 15 min. Samples were then split and either a mixture of 1 μg each of FITC-conjugated CD4-specific mAb and PE-conjugated control hamster IgG mAb or FITC-conjugated CD4-specific mAb and PE-conjugated CD154-specific mAb were added. After a 30 min incubation on ice, cells were washed twice and analyzed on a Becton Dickinson FACScan using Cell Quest software. Viable CD4+ lymphocytes were gated using a combination of forward/side scatter and CD4 staining.
SMILES,effect of concomitant agent on the effects (efficacy) of CD154 mAb therapy on allograft survival ([1]; listed as lactacystin-derived (LC) proteasome inhibitor),effect of concomitant agent on the effects (efficacy) of CD154 mAb therapy on allograft survival ([1]; listed as proteasome inhibitor),suppression (inhibition) of activation-induced CD154 expression [2],"effect on activation-induced CD154 expression, in words [2]"
CCC[C@H]1C(=O)N[C@@]2([C@@H](O)C(C)C)C(=O)O[C@@H]12 [PS-519],significantly impaired,blocked,–,–
"C[C@H]1C[C@@H]2[C@H]([C@@H](O)C[C@@]3(C)[C@H]2CC[C@]3(O)C(=O)CO)[C@@]2(C)C=CC(=O)C=C12 [methylprednisolone, 6α-methylprednisolone]",–,–,> 90%,–
COc1c(C)c2c(c(O)c1C/C=C(\C)CCC(=O)OCCN1CCOCC1)C(=O)OC2 [mycophenolate mofetil],–,–,< 10%,complete lack of effect
CO[C@H]1C[C@@H]2CC[C@@H](C)[C@@](O)(O2)C(=O)C(=O)N2CCCC[C@H]2C(=O)O[C@H]([C@H](C)C[C@@H]2CC[C@@H](O)[C@H](OC)C2)CC(=O)[C@H](C)/C=C(\C)[C@@H](O)[C@@H](OC)C(=O)[C@H](C)C[C@H](C)/C=C/C=C/C=C/1C [rapamycin],–,–,< 20%,–
CC(C)C[C@H](NC(=O)[C@H](Cc1cccc2ccccc12)NC(=O)N1CCOCC1)B(O)O [MG-273],–,–,–,significantly decreased; also recorded: significantly blocked
